According to ChEMBL document CHEMBL1201862, “PubChem BioAssay data set” (2004):
Values joined by “and” are separate entries in the source; they are usually repeats but may differ in a detail not shown here. Equal entries are not always repeated.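 Values below derive from 48-hour exposures of cells grown in 96-well plates, with endpoints linearly interpolated between the two concentrations bracketing the appropriate inhibition level. GI50 is the concentration that inhibits growth by half.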 Active and inactive are the calls of the source. No stated cut-off is given here; in the data, active = GI50 up to about 1.1 µM and inactive = higher.

Columns and labels:
Assay in all cases: inhibition of tumour cell growth, NCI panel, 48 h
OVCAR-3 = system: OVCAR-3
SK-MEL-28 = system: SK-MEL-28
CCRF-CEM = system: CCRF-CEM
NCI-H23 = system: NCI-H23
SW-620 = system: SW-620
Malme-3M = system: Malme-3M
COLO 205 = system: COLO 205
TK-10 = system: TK-10
LOX IMVI = system: LOX IMVI
786-0 = system: 786-0
UO-31 = system: UO-31
UACC-257 = system: UACC-257
UACC-62 = system: UACC-62
NCI-H226 = system: NCI-H226
HCT-15 = system: HCT-15
KM12 = system: KM12
HOP-92 = system: HOP-92
CAKI-1 = system: CAKI-1
MDA-MB-435 = system: MDA-MB-435
SN12C = system: SN12C
SK-MEL-5 = system: SK-MEL-5
MCF7 = system: MCF7
A549 = system: A549
HL-60 = system: HL-60
U-251 = system: U-251
SF-295 = system: SF-295
Hs-578T = system: Hs-578T
M14 = system: M14
SK-MEL-2 = system: SK-MEL-2
NCI-H522 = system: NCI-H522
OVCAR-5 = system: OVCAR-5
HCC 2998 = system: HCC 2998
EKVX = system: EKVX
T47D = system: T47D
NCI/ADR-RES = system: NCI/ADR-RES
SF-539 = system: SF-539
SK-OV-3 = system: SK-OV-3
MDA-MB-231 = system: MDA-MB-231
MDA-N = system: MDA-N
ACHN = system: ACHN
HCT-116 = system: HCT-116
SR = system: SR
BT-549 = system: BT-549
OVCAR-8 = system: OVCAR-8
HOP-62 = system: HOP-62
OVCAR-4 = system: OVCAR-4
DU-145 = system: DU-145
IGROV-1 = system: IGROV-1
NCI-H460 = system: NCI-H460
SNB-75 = system: SNB-75
K562 = system: K562
SNB-19 = system: SNB-19
SF-268 = system: SF-268
HT-29 = system: HT-29
MOLT-4 = system: MOLT-4
PC-3 = system: PC-3
RXF 393 = system: RXF 393
A498 = system: A498

For `CCNC(=O)CCC(C)[C@H]1CCC2C3C(C[C@H](OC(C)=O)[C@@]21C)[C@@]1(C)CCC2(C[C@H]1C[C@H]3OC(C)=O)OOC1(CCC(C)CC1)OO2` (some centres not stated), the GI50 (OVCAR-3) was 1.55 µM (inactive) and 1.59 µM (inactive), the GI50 (SK-MEL-28) was 2.9 µM (inactive) and 3.47 µM (inactive) and the GI50 (CCRF-CEM) was 710 nM (active) and 1.24 µM (inactive). The GI50 (NCI-H23) was 2.13 µM (inactive) and 2.2 µM (inactive), the GI50 (SW-620) was 4.6 µM (inactive) and 2.74 µM (inactive) and the GI50 (Malme-3M) was 2.23 µM (inactive) and 1.6 µM (inactive). The GI50 (COLO 205) was 1.53 µM (inactive) and 1.65 µM (inactive), the GI50 (TK-10) was 2.3 µM (inactive) and 2.43 µM (inactive) and the GI50 (LOX IMVI) was 1.83 µM (inactive) and 2.05 µM (inactive). For the same molecule, the GI50 (786-0) was 2.38 µM (inactive) and 1.58 µM (inactive), the GI50 (UO-31) was 1.02 µM (active) and 1.35 µM (inactive) and the GI50 (UACC-257) was 4.63 µM (inactive) and 2.62 µM (inactive). For the same molecule, the GI50 (UACC-62) was 1.69 µM (inactive) and 2.26 µM (inactive), the GI50 (NCI-H226) was 1.52 µM (inactive) and 1.69 µM (inactive) and the GI50 (HCT-15) was 1990 nM and 2000 nM. The GI50 (KM12) was 1.64 µM (inactive) and 1.57 µM (inactive), the GI50 (HOP-92) was 1.68 µM (inactive) and 1.44 µM (inactive) and the GI50 (CAKI-1) was 1.5 µM (inactive) and 820 nM (active). For the same molecule, the GI50 (MDA-MB-435) was 1.79 µM (inactive) and 1.72 µM (inactive), the GI50 (SN12C) was 2.52 µM (inactive) and 1.83 µM (inactive) and the GI50 (SK-MEL-5) was 1.67 µM (inactive) and 1.61 µM (inactive). The GI50 (MCF7) was 2.56 µM (inactive) and 2.7 µM (inactive), the GI50 (A549) was 1.5 µM (inactive) and 1.49 µM (inactive) and the GI50 (HL-60) was 1.49 µM (inactive) and 1.97 µM (inactive). For the same molecule, the GI50 (U-251) was 2.09 µM (inactive) and 1.6 µM (inactive), the GI50 (SF-295) was 3.82 µM (inactive) and 2 µM (inactive) and the GI50 (Hs-578T) was 2.62 µM (inactive) and 2.68 µM (inactive). The GI50 (M14) was 2.73 µM (inactive) and 2.14 µM (inactive), the GI50 (SK-MEL-2) was 1.58 µM (inactive) and 1.61 µM (inactive) and the GI50 (NCI-H522) was 1.47 µM (inactive) and 1.22 µM (inactive). For the same molecule, the GI50 (OVCAR-5) was 2.7 µM (inactive) and 1.82 µM (inactive), the GI50 (HCC 2998) was 1.75 µM (inactive) and 3.1 µM (inactive) and the GI50 (EKVX) was 1.39 µM (inactive) and 1.3 µM (inactive). For the same molecule, the GI50 (T47D) was 1.43 µM (inactive) and 1.68 µM (inactive), the GI50 (NCI/ADR-RES) was 3.31 µM (inactive) and 1.73 µM (inactive) and the GI50 (SF-539) was 1.97 µM (inactive) and 2.75 µM (inactive). For the same molecule, the GI50 (SK-OV-3) was 4.02 µM (inactive) and 2.54 µM (inactive), the GI50 (MDA-MB-231) was 2.1 µM (inactive) and the GI50 (MDA-N) was 1.88 µM (inactive) and 2.65 µM (inactive). For the same molecule, the GI50 (ACHN) was 1.55 µM (inactive) and 1.63 µM (inactive), the GI50 (HCT-116) was 1.94 µM (inactive) and 1.79 µM (inactive) and the GI50 (SR) was 1.17 µM (inactive) and 1.03 µM (active). The GI50 (BT-549) was 2.03 µM (inactive) and 1.57 µM (inactive), the GI50 (OVCAR-8) was 2.61 µM (inactive) and 1.51 µM (inactive) and the GI50 (HOP-62) was 689 nM (active) and 1.31 µM (inactive). For the same molecule, the GI50 (OVCAR-4) was 1.24 µM (inactive) and 1.58 µM (inactive), the GI50 (DU-145) was 1.73 µM (inactive) and 2.37 µM (inactive) and the GI50 (IGROV-1) was 1.35 µM (inactive) and 1.41 µM (inactive). The GI50 (NCI-H460) was 2.39 µM (inactive) and 1.75 µM (inactive), the GI50 (SNB-75) was 1.59 µM (inactive) and 1.95 µM (inactive) and the GI50 (K562) was 3.8 µM (inactive). For the same molecule, the GI50 (SNB-19) was 6.38 µM (inactive) and 4.21 µM (inactive).

With `NCCCC[C@H](N)C(=O)Nc1ccc(-c2nc3ccccc3s2)cc1` the GI50 (OVCAR-3) was 20.4 µM (inactive), the GI50 (SK-MEL-28) was 19.7 µM (inactive) and the GI50 (CCRF-CEM) was 9.89 µM (inactive). The GI50 (NCI-H23) was 25.6 µM (inactive), the GI50 (SW-620) was 16.9 µM (inactive) and the GI50 (Malme-3M) was 19.4 µM (inactive). The GI50 (COLO 205) was 18.7 µM (inactive), the GI50 (TK-10) was 57.7 µM (inactive) and the GI50 (SF-268) was 23.2 µM (inactive). For the same molecule, the GI50 (LOX IMVI) was 24.8 µM (inactive), the GI50 (HT-29) was 16.5 µM (inactive) and the GI50 (786-0) was 18.1 µM (inactive). The GI50 (UO-31) was 12.7 µM (inactive), the GI50 (UACC-257) was 70 µM (inactive) and the GI50 (UACC-62) was 21.7 µM (inactive). For the same molecule, the GI50 (NCI-H226) was 25.6 µM (inactive), the GI50 (HCT-15) was 17400 nM and the GI50 (KM12) was 18.5 µM (inactive). For the same molecule, the GI50 (HOP-92) was 34.7 µM (inactive), the GI50 (CAKI-1) was 37.9 µM (inactive) and the GI50 (MDA-MB-435) was 18.7 µM (inactive). The GI50 (SN12C) was 24.8 µM (inactive), the GI50 (MOLT-4) was 16.2 µM (inactive) and the GI50 (SK-MEL-5) was 33.4 µM (inactive). The GI50 (A549) was 31.2 µM (inactive), the GI50 (U-251) was 14.3 µM (inactive) and the GI50 (SF-295) was 15.7 µM (inactive). For the same molecule, the GI50 (PC-3) was 25.6 µM (inactive), the GI50 (Hs-578T) was 23.1 µM (inactive) and the GI50 (M14) was 12.6 µM (inactive). For the same molecule, the GI50 (SK-MEL-2) was 29.1 µM (inactive), the GI50 (NCI-H522) was 17 µM (inactive) and the GI50 (OVCAR-5) was 14.9 µM (inactive). The GI50 (RXF 393) was 33.2 µM (inactive), the GI50 (HCC 2998) was 26.7 µM (inactive) and the GI50 (EKVX) was 10.1 µM (inactive). The GI50 (A498) was 22.1 µM (inactive), the GI50 (T47D) was 33.7 µM (inactive) and the GI50 (NCI/ADR-RES) was 21.6 µM (inactive). The GI50 (SK-OV-3) was 21.1 µM (inactive), the GI50 (MDA-MB-231) was 15.1 µM (inactive) and the GI50 (MDA-N) was 15.7 µM (inactive). The GI50 (ACHN) was 20.3 µM (inactive), the GI50 (HCT-116) was 19 µM (inactive) and the GI50 (SR) was 18.4 µM (inactive). For the same molecule, the GI50 (BT-549) was 28.6 µM (inactive), the GI50 (OVCAR-8) was 19.8 µM (inactive) and the GI50 (HOP-62) was 25.1 µM (inactive). For the same molecule, the GI50 (OVCAR-4) was 36.2 µM (inactive), the GI50 (DU-145) was 21.7 µM (inactive) and the GI50 (IGROV-1) was 16.7 µM (inactive). For the same molecule, the GI50 (NCI-H460) was 16.9 µM (inactive), the GI50 (SNB-75) was 16.8 µM (inactive) and the GI50 (K562) was 19.6 µM (inactive). The GI50 (SNB-19) was 16.7 µM (inactive).
